Measurements published in PMC12375981 (Protein Science : A Publication of the Protein Society, 2025).

Assays:
S1D 3CL^pro [1] = biological target: T1, S1D 3CL^pro (Severe acute respiratory syndrome coronavirus 2, UniProt P0DTD1, S3264D); assay type: binding, SARS‐CoV‐2
[2] = biological target: S1D + A191E 3CL^pro (double mutant, DM) (Severe acute respiratory syndrome coronavirus 2, UniProt P0DTD1, A3454E/S3264D); assay type: biochemical, SARS‐CoV‐2
S1D 3CL^pro [3] = biological target: T1, S1D 3CL^pro; assay type: biochemical, SARS‐CoV‐2
DM (S1D + A191E) 3CL^pro = DM (S1D + A191E) 3CL^pro (Severe acute respiratory syndrome coronavirus 2, UniProt P0DTD1, A3454E/S3264D); assay type: binding, SARS‐CoV‐2
A191E 3CL^pro = A191E 3CL^pro (Severe acute respiratory syndrome coronavirus 2, UniProt P0DTD1, A3454E); assay type: biochemical, SARS‐CoV‐2
[4] = test system: E166V mutation of 3CL^pro; conditions: cited from earlier work
E166V 3CL^pro = conditions: cited from earlier work

| SMILES | effect of inhibitor on monomer/dimer peaks (S1D 3CL^pro [1]) | K D [2] [nM] | K D f c [2] [nM] | K D/f c [2] [nM] | f c [2] | inhibitor concentration at which the mutant is more active than the WT [2] [nM] | reduction in affinity for the dimer (K i) compared to the WT [2] [fold] | K D (S1D 3CL^pro [3]) [nM] | K D f c (S1D 3CL^pro [3]) [nM] | K D/f c (S1D 3CL^pro [3]) [nM] | f c (S1D 3CL^pro [3]) | inhibitor concentration at which the mutant is more active than the WT (S1D 3CL^pro [3]) | inhibitor concentration for full inhibition (S1D 3CL^pro [3]) | reduction in affinity (K i) compared to the WT (S1D 3CL^pro [3]) [fold] | effect of inhibitor on monomer/dimer peaks (DM (S1D + A191E) 3CL^pro) | reduction in affinity (K i) compared to the WT (A191E 3CL^pro) [fold] | increase in EC50 [4] | increase in K i (E166V 3CL^pro) |
| --- | --- | --- | --- | --- | --- | --- | --- | --- | --- | --- | --- | --- | --- | --- | --- | --- | --- | --- |
| COc1cccc2[nH]c(C(=O)N[C@@H](CC(C)C)C(=O)N[C@@H](C[C@@H]3CCNC3=O)C(=O)COP(=O)(O)O)cc12 [lufotrelvir] | eliminated the monomeric peaks | 140 ± 10 | 2300 ± 300 | 9 ± 1 | 16 ± 1 | ≥ 10 | 26 | 290 ± 30 | 6000 ± 700 | 13 ± 2 | 21 ± 1 | greater than 10 nM | exceeded 1 μM | 3.3 | eliminated the monomeric peaks | 6.4 |  |  |
| CC(C)(C)[C@H](NC(=O)C(F)(F)F)C(=O)N1C[C@H]2[C@@H]([C@H]1C(=O)N[C@H](C#N)C[C@@H]1CCNC1=O)C2(C)C [nirmatrelvir] |  |  |  |  |  |  |  |  |  |  |  |  |  |  |  |  | up to 255 fold | more than 7000 fold |
